Here are results for 3 compounds from the NIST ThermoML archive (doi:10.1021/acs.jced.9b00422).

One may read the mass density as mass per unit of volume.

Numbers after ± are expanded uncertainties.

This data set is described as follows: wn = mass fraction of the nth substance listed. The note with it: 323 K, 101.3 kPa, Liquid, Pycnometric method.

Turning to `[Ca+2].[Cl-].[Cl-]` [calcium chloride] + O, the mass density (w1 = 0.568) was determined as 1538.2 ± 6.6 kg/m3. Consider `[Cl-].[Cl-].[Zn+2]` [zinc chloride] + O, for which, where the note is “w1 = 0.8225”, the mass density is given as 2274.8 ± 7 kg/m3. Turning to `[Cl-].[Na+]` [sodium chloride] + O, the mass density (w1 = 0.2722) was determined as 1175 ± 2.4 kg/m3.
